# Experimental data: PMC6934184, “Selective DNA-PKcs inhibition extends the therapeutic index of localized radiotherapy and chemotherapy” (The Journal of Clinical Investigation, 2019)
# Target: T1, PRKCE (PKC epsilon) (Homo sapiens, UniProt Q02156)
# T1 construct: purchased Thermo Fisher Scientific (Life Technologies) SelectScreen
# Experiment: SelectScreen Z'LYTE
# Type: biochemical
# In short: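 NU5455 was profiled across the SelectScreen Broad panel of kinase activity and binding assays. Z'LYTE reactions such as CSF1R ran at apparent Km ATP, while the Adapta CAMK1 assay used ATP listed as 10. Values are given as percent.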
# T1 sequence (Q02156 whole entry): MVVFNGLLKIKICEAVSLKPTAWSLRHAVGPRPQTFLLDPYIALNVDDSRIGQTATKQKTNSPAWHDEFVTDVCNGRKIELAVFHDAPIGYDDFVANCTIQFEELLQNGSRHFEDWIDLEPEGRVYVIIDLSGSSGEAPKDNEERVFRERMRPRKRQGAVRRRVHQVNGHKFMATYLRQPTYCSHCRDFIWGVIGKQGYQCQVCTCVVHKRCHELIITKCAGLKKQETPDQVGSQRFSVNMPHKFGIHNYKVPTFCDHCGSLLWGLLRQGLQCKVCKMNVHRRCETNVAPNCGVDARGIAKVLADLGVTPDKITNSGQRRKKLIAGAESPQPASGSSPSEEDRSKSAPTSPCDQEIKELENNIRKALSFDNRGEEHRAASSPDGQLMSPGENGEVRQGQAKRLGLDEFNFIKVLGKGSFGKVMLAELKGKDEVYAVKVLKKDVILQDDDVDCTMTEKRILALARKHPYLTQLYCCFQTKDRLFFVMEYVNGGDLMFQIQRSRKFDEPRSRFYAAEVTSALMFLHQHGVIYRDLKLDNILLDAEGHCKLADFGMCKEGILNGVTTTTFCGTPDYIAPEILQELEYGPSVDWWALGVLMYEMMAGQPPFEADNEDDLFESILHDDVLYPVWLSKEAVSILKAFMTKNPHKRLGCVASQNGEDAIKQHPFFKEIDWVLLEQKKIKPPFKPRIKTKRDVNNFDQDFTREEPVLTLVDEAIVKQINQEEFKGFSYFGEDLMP
smiles,measurement,value
CN(C(=O)CN1CCOCC1)c1ccc2sc3c(-c4cccc5c(=O)cc(N6CC7CCC(C6)O7)oc45)cccc3c2c1 [NU5455],inhibition at 1 µM,-4.9%
